In US9499554B2, “Anti-influenza compositions and methods” (priority 2013, dated 2016):
In brackets after ≈: the same amount, converted by molar mass. Like-named read-outs stand apart in the source and are kept apart here.

Columns and labels:
[1] = tested on: Influenza A H5N1 VN/1203/2004 Hybrid (on H1N1 backbone); assay: microbe, parasite or virus in culture; assay type: cell-based; conditions: Influenza A virus
[2] = tested on: Influenza A H5N1 VN/1203/2004 Hybrid (on H1N1 backbone); assay: microbe, parasite or virus in culture; assay type: cell-based; conditions: Influenza A virus, read-out: EC50, Visual CPE Assay

`Nc1ncnc2c([C@@H]3N[C@H](CO)[C@@H](O)[C@H]3O)c[nH]c12` [compound 1, (2S,3S,4R,5R)-2-(4-Amino-5H-pyrrolo[3,2-d]pyrimidin-7-yl)-5-(hydroxymethyl)pyrrolidine-3,4-diol] showed an EC50 ([1]; MDCK, read-out: EC50, antiviral activity in MDCK cells) of 0.99 µg/mL (≈ 3.73 µM), an EC50 ([1]; read-out: EC50, Neutral Red Uptake Assay) of 0.99 µg/mL (≈ 3.73 µM) and an EC50 [2] of 0.63 µg/mL (≈ 2.37 µM).
